One series concerns PPA1. Kind of series: TMT proteomics H9 hESC: PPA1 abundance. It is filed as cell-based, human. Conditions: H9 hES cells, 5 h vs DMSO; thalidomide 10 µM, lenalidomide 5 µM. The source says: (§1) We established a mass spectrometry-based workflow (Figure 1—figure supplement 1A) to detect IMiD-induced protein degradation in hESC.
(§2) Proteins were precipitated using methanol/chloroform.

The next series concerns HNRNPH1. Description: TMT proteomics H9 hESC: HNRNPH1 abundance. It is filed as cell-based, human. Conditions: H9 hES cells, 5 h vs DMSO; lenalidomide 5 µM.
From the text: as §1, §2

Series [1] has as its system IMiD-dependent neo-substrates. Kind of series: TMT proteomics profiling of IMiD-dependent neo-substrates (hESC, Kelly, SK-N-DZ, MM1s). It is filed as cell-based, human. Conditions: for number of substrates identified (rank order): H9 hESC proteomics; for substrates robustly degraded (each drug in addition to the preceding one): proteomics across hESC, MM1s, Kelly, SK-N-DZ cells.
From the text: as §1, §2

For series [2] the following is noted: 2013, cited from earlier work.
Another series relates to OGDH. Kind of series: TMT proteomics MM1s cells: OGDH abundance. Conditions: 5 h vs DMSO, lenalidomide 5 µM.
In another series the test system is ST14. Description: TMT proteomics MM1s cells: ST14 abundance. Conditions: 5 h vs DMSO, lenalidomide 5 µM.
A further series deals with HADHA. Description: TMT proteomics MM1s cells: HADHA abundance. Conditions: 5 h vs DMSO, lenalidomide 5 µM.
The subject of a further series is DYNC1H1. Description: TMT proteomics Kelly cells: DYNC1H1 abundance. Conditions: 5 h vs DMSO, lenalidomide 5 µM.
For series [3], the target named is T1, SALL4 (Homo sapiens, UniProt Q9UJQ4). Description: TMT proteomics H9 hESC: SALL4 abundance. It is filed as cell-based. Conditions: H9 hES cells, 5 h vs DMSO; thalidomide 10 µM, lenalidomide 5 µM, pomalidomide 1 µM.
From the text: as §1, §2

Another series deals with T2, VRTN (Homo sapiens, UniProt Q9H8Y1).
T2 construct: endogenous in cells; host or cells: H9 hESC
T2 sequence (Q9H8Y1 whole entry): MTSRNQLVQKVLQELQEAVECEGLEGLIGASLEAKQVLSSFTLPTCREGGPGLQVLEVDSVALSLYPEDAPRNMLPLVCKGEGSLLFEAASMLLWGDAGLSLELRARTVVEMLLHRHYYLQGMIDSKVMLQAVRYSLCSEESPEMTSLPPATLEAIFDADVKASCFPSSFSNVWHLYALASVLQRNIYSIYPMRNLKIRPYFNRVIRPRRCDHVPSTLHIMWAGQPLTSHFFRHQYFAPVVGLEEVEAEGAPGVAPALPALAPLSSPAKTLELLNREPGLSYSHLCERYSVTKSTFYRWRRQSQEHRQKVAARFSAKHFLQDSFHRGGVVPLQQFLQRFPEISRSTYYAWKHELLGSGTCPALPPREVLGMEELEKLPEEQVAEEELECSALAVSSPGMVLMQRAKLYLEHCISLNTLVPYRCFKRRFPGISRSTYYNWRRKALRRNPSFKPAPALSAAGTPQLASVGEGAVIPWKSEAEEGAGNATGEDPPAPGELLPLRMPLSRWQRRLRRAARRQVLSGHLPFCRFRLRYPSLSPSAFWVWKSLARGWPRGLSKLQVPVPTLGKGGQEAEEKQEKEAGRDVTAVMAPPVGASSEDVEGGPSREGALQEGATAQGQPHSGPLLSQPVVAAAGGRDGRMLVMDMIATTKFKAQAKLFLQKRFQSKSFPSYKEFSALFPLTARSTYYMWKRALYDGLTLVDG
Kind of series: TMT proteomics H9 hESC: VRTN abundance. It is filed as cell-based. Conditions: H9 hES cells, 5 h vs DMSO; thalidomide 10 µM, pomalidomide 1 µM.
From the text: as §1, §2

In a further series the test system is CYR61. Kind of series: TMT proteomics H9 hESC: CYR61 abundance. Conditions: H9 hES cells, 5 h vs DMSO; thalidomide 10 µM. It is filed as cell-based, human.
From the text: as §1, §2

Another series deals with RPS17; RPS17L. Description: TMT proteomics H9 hESC: RPS17 abundance. It is filed as cell-based, human. Conditions: H9 hES cells, 5 h vs DMSO; thalidomide 10 µM.
From the text: as §1, §2

In the next series the test system is ACAD9. Kind of series: TMT proteomics Kelly cells: ACAD9 abundance. It is filed as cell-based, human. Conditions: 5 h vs DMSO, thalidomide 10 µM.
From the text: as §2

The next series concerns PPP3R1. Description: TMT proteomics MM1s cells: PPP3R1 abundance. It is filed as cell-based, human. Conditions: 5 h vs DMSO, thalidomide 10 µM.
From the text: as §2

The subject of the next series is SALL4 mRNA. Kind of series: Quantitative RT-PCR of total SALL4 mRNA in H9 hES cells. Conditions: 10 µM thalidomide, 24 h vs DMSO. It is filed as cell-based, human. How it is done: RNA was isolated using the RNeasy Plus mini kit (Qiagen) and cDNA created by reverse transcription using ProtoScript II reverse transcriptase (NEB) following the manufacturer’s instructions. The following primer sets from IDT were used with SYBR Green Master Mix (Applied Biosystems) to probe both GAPDH and total SALL4 levels:
Analysis was performed on a CFX Connect Real-Time PCR System (Bio-Rad) in a white 96-well PCR plate. Relative expression levels were calculated using the ΔΔCT method.

The test system of series [4] is SALL4. Kind of series: Western blot of SALL4 in CRBN-/- Kelly and HEK293T cells. It is filed as cell-based, human. Conditions: increasing concentrations, 24 h.
Series [5] concerns the target hsSALL4ZnF2 / DDB1∆B-CRBN (Homo sapiens, UniProt Q96SW2+Q9UJQ4). Kind of series: TR-FRET IMiD-dependent binding of SALL4ZnF2 to CRBN. Conditions: DDB1∆B-CRBN 200 nM, hsSALL4ZnF2 100 nM. The text has this:
The TR-FRET signal of each data point was extracted by calculating the 520/490 nm ratios.

In a further series the target is Flag-hsSALL4^WT (Homo sapiens, UniProt Q9UJQ4). Kind of series: Western blot of transfected Flag-hsSALL4 WT in Kelly cells. It is filed as cell-based. Conditions: 24 h. How it is done: (§3) For transient transfection, 0.2 million cells were seeded per well in a 12 well plate on day 1. On day 2, cells were transfected with 200–300 ng of plasmid (pNTM-Flag containing gene of interest) using 2 µL of lipofectamine 2000 transfection reagent (Invitrogen). On day 3, the desired concentration of IMiD was added to each well and cells were harvested after 24 h for western blot analysis using the protocol described above.
Sequence of Flag-hsSALL4^WT (Q9UJQ4 whole entry): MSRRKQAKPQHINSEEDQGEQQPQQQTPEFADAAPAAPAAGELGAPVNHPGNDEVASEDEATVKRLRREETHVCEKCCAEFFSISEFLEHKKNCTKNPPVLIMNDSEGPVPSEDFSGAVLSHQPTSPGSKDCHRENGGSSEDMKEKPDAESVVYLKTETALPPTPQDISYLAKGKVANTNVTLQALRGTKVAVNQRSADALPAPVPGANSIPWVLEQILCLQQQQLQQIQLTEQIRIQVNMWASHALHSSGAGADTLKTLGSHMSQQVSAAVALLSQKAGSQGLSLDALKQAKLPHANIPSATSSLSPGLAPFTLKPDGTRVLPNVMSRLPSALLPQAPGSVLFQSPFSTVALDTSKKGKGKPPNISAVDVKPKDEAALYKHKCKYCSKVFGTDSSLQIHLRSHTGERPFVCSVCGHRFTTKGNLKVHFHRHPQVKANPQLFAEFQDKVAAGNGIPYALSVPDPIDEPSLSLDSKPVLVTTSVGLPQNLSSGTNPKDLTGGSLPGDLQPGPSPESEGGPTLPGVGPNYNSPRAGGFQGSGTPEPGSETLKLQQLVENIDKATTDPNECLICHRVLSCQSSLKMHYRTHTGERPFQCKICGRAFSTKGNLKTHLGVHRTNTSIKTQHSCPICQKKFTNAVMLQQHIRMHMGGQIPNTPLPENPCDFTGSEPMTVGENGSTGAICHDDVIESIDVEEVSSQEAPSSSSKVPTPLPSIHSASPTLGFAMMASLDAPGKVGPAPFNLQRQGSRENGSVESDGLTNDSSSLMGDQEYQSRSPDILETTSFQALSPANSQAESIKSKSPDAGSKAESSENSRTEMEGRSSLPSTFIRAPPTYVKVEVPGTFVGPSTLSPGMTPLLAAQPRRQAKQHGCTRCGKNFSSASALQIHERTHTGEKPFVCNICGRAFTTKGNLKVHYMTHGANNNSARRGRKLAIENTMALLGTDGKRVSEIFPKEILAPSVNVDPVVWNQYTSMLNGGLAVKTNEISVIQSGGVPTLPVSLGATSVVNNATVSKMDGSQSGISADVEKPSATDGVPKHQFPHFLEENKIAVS

The subject of series [6] is Flag-hsSALL4^G600A, hsSALL4^G600N. Kind of series: Western blot of transfected Flag-hsSALL4 G600A/G600N in Kelly cells. It is filed as cell-based, human. Conditions: thalidomide, 24 h. As to the method:
as §3

Series [7] concerns Flag-hsSALL4^G416A, Flag-hsSALL4^G416N. Kind of series: Western blot of transfected Flag-hsSALL4 G416A/G416N in Kelly cells. It is filed as cell-based, human. Conditions: thalidomide, 24 h. How it is done:
as §3

A further series has as its target T3, mmSALL4 (Mus musculus, UniProt Q8BX22).
T3 construct: endogenous in cells; host or cells: TC1 mouse embryonic stem cells
Description: Western blot of mmSALL4 in mouse embryonic stem cells. It is filed as cell-based. Conditions: increasing concentrations, 24 h.

Series [8] deals with Flag-mmSALL4 containing a humanized ZnF2 (Y415F, P418S, I419V, L430F, Q435H) (UniProt Q8BX22+Q96SW2, I419V/L434F/P418S/Q435H/Y415F). Description: Western blot of Flag-mmSALL4 with humanized ZnF2 in Kelly cells. It is filed as cell-based, mouse. Conditions: thalidomide, 24 h. As to the method: as §3
The next series relates to chicken embryos. Further details: method as in Ito et al., 2010. Conditions: direct application to the limb buds, ref Ito et al., 2010; cited from earlier work.
The subject of another series is zebrafish embryos. More on the design: method as in Ito et al., 2010. Conditions: ref Ito et al., 2010; cited from earlier work.
For a further series, the target named is IKZF1 (Homo sapiens, UniProt Q13422+Q96SW2). Description: TMT proteomics MM1s cells: IKZF1 abundance. Conditions: 5 h vs DMSO, thalidomide 10 µM, lenalidomide 5 µM, pomalidomide 1 µM.
A further series concerns the target IKZF3 (Homo sapiens, UniProt Q96SW2+Q9UKT9). Description: TMT proteomics MM1s cells: IKZF3 abundance. Conditions: 5 h vs DMSO, thalidomide 10 µM, lenalidomide 5 µM, pomalidomide 1 µM.
For another series, the target named is RAB28 (Homo sapiens, UniProt P51157). Description: TMT proteomics MM1s cells: RAB28 abundance. Conditions: 5 h vs DMSO, thalidomide 10 µM, lenalidomide 5 µM, pomalidomide 1 µM.
In series [9] the target is T4, ZFP91 (Homo sapiens, UniProt Q96JP5+Q96SW2). Description: TMT proteomics MM1s cells: ZFP91 abundance. Conditions: 5 h vs DMSO, thalidomide 10 µM, lenalidomide 5 µM, pomalidomide 1 µM.
Series [10] concerns the target T1, SALL4. Description: TMT proteomics Kelly cells: SALL4 abundance. Conditions: 5 h vs DMSO, thalidomide 10 µM, lenalidomide 5 µM, pomalidomide 1 µM.
In series [11] the target is T4, ZFP91. Description: TMT proteomics Kelly cells: ZFP91 abundance. Conditions: 5 h vs DMSO, thalidomide 10 µM, lenalidomide 5 µM, pomalidomide 1 µM.
The next series deals with ZNF692 (Homo sapiens, UniProt Q96SW2+Q9BU19). Kind of series: TMT proteomics Kelly cells: ZNF692 abundance. Conditions: 5 h vs DMSO, thalidomide 10 µM, lenalidomide 5 µM, pomalidomide 1 µM.
In another series the target is ZNF827 (Homo sapiens, UniProt Q17R98+Q96SW2). Description: TMT proteomics Kelly cells: ZNF827 abundance. Conditions: 5 h vs DMSO, thalidomide 10 µM, lenalidomide 5 µM, pomalidomide 1 µM.
The target of series [12] is T1, SALL4. Description: Western blot of SALL4 in Kelly, SK-N-DZ, HEK293T and H661 cells. Conditions: increasing concentrations, 24 h.
Series [13] addresses T1, SALL4. Kind of series: Western blot of SALL4 in H9 hESC. It is filed as cell-based. More on the design: endogenous in cells; host or cells: Kelly, H9 hESC, SK-N-DZ cells. Conditions: increasing doses, 24 h.

T3 sequence (Q8BX22 whole entry): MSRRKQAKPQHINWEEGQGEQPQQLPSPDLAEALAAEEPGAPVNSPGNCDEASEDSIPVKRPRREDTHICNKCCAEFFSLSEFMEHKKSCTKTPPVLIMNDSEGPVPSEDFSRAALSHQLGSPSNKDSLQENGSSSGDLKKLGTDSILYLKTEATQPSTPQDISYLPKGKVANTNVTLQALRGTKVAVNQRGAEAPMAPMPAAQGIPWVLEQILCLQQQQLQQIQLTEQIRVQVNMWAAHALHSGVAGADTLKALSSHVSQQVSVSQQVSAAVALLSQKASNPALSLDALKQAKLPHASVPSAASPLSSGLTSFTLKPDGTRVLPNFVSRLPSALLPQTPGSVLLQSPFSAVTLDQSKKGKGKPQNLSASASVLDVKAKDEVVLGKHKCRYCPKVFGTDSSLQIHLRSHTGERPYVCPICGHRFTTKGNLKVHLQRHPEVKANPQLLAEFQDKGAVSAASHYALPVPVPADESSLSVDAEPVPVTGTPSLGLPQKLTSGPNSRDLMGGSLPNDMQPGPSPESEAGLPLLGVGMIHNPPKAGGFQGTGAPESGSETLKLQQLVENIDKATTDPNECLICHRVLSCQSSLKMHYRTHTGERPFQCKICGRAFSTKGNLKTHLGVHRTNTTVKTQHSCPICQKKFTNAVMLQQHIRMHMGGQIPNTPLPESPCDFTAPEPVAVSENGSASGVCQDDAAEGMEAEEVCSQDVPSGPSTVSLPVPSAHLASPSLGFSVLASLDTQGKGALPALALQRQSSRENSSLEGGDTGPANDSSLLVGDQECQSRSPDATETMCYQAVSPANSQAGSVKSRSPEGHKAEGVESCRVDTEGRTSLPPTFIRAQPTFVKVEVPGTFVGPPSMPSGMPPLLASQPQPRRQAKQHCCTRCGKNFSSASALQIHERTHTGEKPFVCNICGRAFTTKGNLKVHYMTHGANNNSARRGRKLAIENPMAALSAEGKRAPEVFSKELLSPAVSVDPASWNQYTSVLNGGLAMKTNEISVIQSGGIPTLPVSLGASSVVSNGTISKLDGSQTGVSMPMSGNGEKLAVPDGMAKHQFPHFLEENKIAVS

In the case of `Nc1cccc2c1CN(C1CCC(=O)NC1=O)C2=O` (stereo not drawn) [lenalidomide], the “logFC PPA1” value in the series on PPA1 was -0.1919. Moreover, the “logFC HNRNPH1” value in the series with HNRNPH1 is reported as 0.1553. For the same compound, in [1], the “number of substrates identified (rank order)” value is “Thal < Len << Pom”; the “substrates robustly degraded (each drug in addition to the preceding one)” value was “ZNF827, FAM83F, and RAB28 along with the lenalidomide-specific substrate CSNK1A1”. Also, the “proteins degraded upon treatment (besides SALL4)” value in [1] (H9 hESC, 5 h, 5 µM lenalidomide, 1 µM pomalidomide) is given as “CSNK1A1”. In addition, the “plasma half-life (t1/2)” value in [2] (typical dose 200–400 mg thalidomide, 25 mg lenalidomide, 2 mg pomalidomide, ref Chen et al., 2017, Hoffmann et al., Teo et al., 2004) was ~ 3 h. In addition, the “logFC OGDH” value in the series with OGDH is 0.1359. Also, in the series on ST14, the “logFC ST14” value is recorded as -0.1872. The “logFC HADHA” value in the series with HADHA is on record as 0.1826. In addition, the “logFC DYNC1H1” value in the series on DYNC1H1 is reported as 0.04048.
Turning to `O=C1CCC(N2C(=O)c3ccccc3C2=O)C(=O)N1` (stereo not drawn) [thalidomide], the “logFC SALL4” value at SALL4 [3] is reported as -1.582; at SALL4 [10], -1.628. Besides, the “logFC VRTN” value on VRTN was -0.4098. The “logFC PPA1” value with PPA1 is -0.1282. Further, in the series on CYR61, the “logFC CYR61” value worked out at 0.4402. For the same compound, the “logFC RPS17; RPS17L” value in the series on RPS17; RPS17L was -0.1321. Also, the “logFC ACAD9” value in the series on ACAD9 is reported as 0.09357. Besides, the “logFC PPP3R1” value in the series with PPP3R1 is -0.2263. In series [1], the “number of substrates identified (rank order)” value was “Thal < Len << Pom”. Moreover, the “substrates robustly degraded (each drug in addition to the preceding one)” value in series [1] was “ZNF692, SALL4, and the ubiquitin ligase RNF166”. Moreover, the “SALL4 mRNA level (qPCR, normalized to GAPDH)” value with SALL4 mRNA was “upregulates SALL4 mRNA”; in the series on SALL4 mRNA (listed as Thalidomide), “did not influence the expression of SALL4 mRNA”. In the series with SALL4 [4], the “SALL4 degradation in CRBN-/- cells” value is given as “no degradation of SALL4 was observed”. For the same compound, in [5], the “rank order in binding observed with ZnF2” value is given as “Pom >Thal >> Len”. The “degradation of ectopically expressed Flag-hsSALL4 wild type” value on Flag-hsSALL4^WT is recorded as “readily degraded”. The “degradation of Flag-SALL4 with G600A or G600N mutations in ZnF4” value in [6] is on record as “readily degraded”. The “degradation of Flag-SALL4 with G416A or G416N mutations in ZnF2” value in [7] is “rendered SALL4 stable”. In addition, on mmSALL4, the “degradation of mmSALL4 in mESC” value is “does not promote degradation of mmSALL4”. Further, the “degradation of mmSALL4 with humanized ZnF2 domain” value in series [8] is recorded as “induce thalidomide-mediated mouse SALL4 degradation”. Besides, the “plasma concentration in humans” value in series [2] (ref Bai et al., Dahut et al., 2009) is on record as at most 10 µM. Moreover, the Cmax in series [2] (typical dose 200–400 mg thalidomide, 25 mg lenalidomide, 2 mg pomalidomide, ref Chen et al., 2017, Hoffmann et al., Teo et al., 2004, read-out: maximum plasma concentration (Cmax)) is 5 to 10 µM. For the same compound, the “dose found to be teratogenic” value in the series on chicken embryos and in the series on zebrafish embryos was 400 µM each time. Also, the “logFC IKZF1” value at IKZF1 is -0.3052. Also, the “logFC IKZF3” value at IKZF3 was -0.3448. Moreover, the “logFC RAB28” value on RAB28 is -0.4948. Also, the “logFC ZFP91” value on ZFP91 [9] is -0.6875; on ZFP91 [11], -0.2749. For the same compound, the “logFC ZNF692” value on ZNF692 was -2.248. Further, on ZNF827, the “logFC ZNF827” value is -0.4132. In addition, the “SALL4 protein levels (western blot)” value at SALL4 [12] was “dose-dependent decrease in SALL4 protein levels”; at SALL4 [13], “dose-dependent decrease in protein levels”.

The record behind these values is PMC6156078, “Thalidomide promotes degradation of SALL4, a transcription factor implicated in Duane Radial Ray syndrome” (eLife, 2018).
